According to US9441024B2, “Glycosylated polypeptide and drug composition containing said polypeptide” (priority 2011, dated 2016):

What was measured:
[1] = test system: growth hormone (GH) production; assay: GH production suppression test with rats; type: in vivo, rat; conditions: for GH: rat plasma GH concentration; for GH concentration in plasma / GH production suppression activity (in words): rat; for GH concentration in plasma: 1 hour before GRF, blood 5 minutes after GRF, vehicle 861; for GH production suppression activity (in words): s.c., 10 or 100 nmol/kg
From the text: As shown in Example 69, the glycosylated polypeptide of the present invention had affinity towards each receptor of SSTR. […] Increase of GH production amount into the blood is thought to cause proliferation or differentiation of cells and activation or suppression of the biosynthetic system in various organs via the paracrine effect of GH, and thereby influence biological reactions. Somatostatin released from the hypothalamus suppresses GH secretion from the anterior pituitary gland into the blood.
. Moreover, GRF (GH releasing hormone, Growth hormone releasing factor) was used as the GH release enhancer. GRF was prepared by dissolving GRF injectable solution (GRF Sumitomo 50 for injection, Lot. 2006C, from Dainippon Sumitomo Pharma Co., Ltd.) in 1 mL of water for injection (Lot. 09H18C, from Fuso Pharmaceutical Industries, Ltd.), and then diluting to 25-folds with saline to obtain 2 μg/mL. As heparin employed as the anticoagulant when collecting blood, Japanese Pharmacopeia heparin sodium injectable solution (Lot. B084, from Mochida Pharmaceutical Co., Ltd.) was used directly as stock solution.
[…]. As the control group, saline without glycosylated polypeptide was similarly administered (vehicle group). Then, i.e. between 5-6 minutes after the administration of the glycosylated form, pentobarbital sodium (somnopentyl, Lot. 0608101, from Kyoritsuseiyaku Corporation) was intraperitoneally administered as a general anesthetic with a glass syringe and an injection needle to give 50 mg/kg. […] […].
. […] By multiplying the results obtained and the dilution ratio, the GH concentration was calculated.

[2] = test system: rat gastrointestinal obstruction model; assay: Gastrointestinal obstruction model: blood parameters (amylase, LDH, CPK); type: in vivo
Procedure: This experimental line was carried out as a test line to evaluate the promotion of intestinal fluid absorption or the secretory suppressing action, using the change in the intestinal fluid weight in the jejunum after bowel obstruction as an indicator. Moreover, blood parameters of deviation enzymes amylase (pancreas), lactate dehydrogenase (LDH, liver), and creatine phosphokinase (CPK, skeletal muscle, cardiac muscle etc.) were measured as indicators of tissue disorders.
The present test was consigned to Mitsubishi Chemical Medience Corporation and carried out. […] Anesthesia was introduced with inhalation of 2% isoflurane and laughing gas:oxygen=7:3, and this was maintained throughout the surgery. A median incision was made in the abdomen, and the jejunum at about 10 cm from the musculus suspensorius duodeni was ligated with a surgical suture. Then, the incision site was promptly sutured, and the rats were fasted until compound administration. In the sham treatment group, ligation of the jejunum was not performed, but the treatment of suturing the incision site after a median incision was made in the abdomen was performed.
(§1) Eighteen hours after the gastrointestinal obstruction surgery, this was subcutaneously administered into the dorsal cervix at a dosage of 1 mL/kg with a glass syringe and a 25 G injection needle (all from Terumo Corporation). As the vehicle group, saline without glycosylated polypeptide was similarly administered.
One hour after compound administration, a median incision was made in the abdomen under inhalation anesthesia, and 1.5 mL of blood was collected from the abdominal vena cava.
The measuring methods employed were BG5B, UV-rate, and JSCC methods, respectively.

[3] = test system: rat gastrointestinal obstruction model; assay: Gastrointestinal obstruction model: intestinal fluid weight of the jejunum; type: in vivo; conditions: for Intestinal fluid weight: Table 9, rat, 40 μM solution 1 mL/kg s.c. 18 h after ligation, 1 h after administration
From the text: Anesthesia was introduced with inhalation of 2% isoflurane and laughing gas:oxygen=7:3, and this was maintained throughout the surgery. A median incision was made in the abdomen, and the jejunum at about 10 cm from the musculus suspensorius duodeni was ligated with a surgical suture. Then, the incision site was promptly sutured, and the rats were fasted until compound administration. In the sham treatment group, ligation of the jejunum was not performed, but the treatment of suturing the incision site after a median incision was made in the abdomen was performed.
as §1
One hour after compound administration, a median incision was made in the abdomen under inhalation anesthesia, and 1.5 mL of blood was collected from the abdominal vena cava. Then, the ligated jejunum on the musculus suspensorius duodeni side was resected. The fluid and blood on the jejunum surface were removed with a paper towel, nerves, blood vessels, and fat attached to the jejunum was removed, this was cut into 6 cm lengths, and wet weight was measured. This was then dried at 36 degrees for 24 hours, and dry weight was measured. The intestinal fluid weight (mg) was calculated by wet weight-dry weight.

SSTR1-SSTR5 = assay: Competitive binding assay, statements over all receptors SSTR1-SSTR5; parameters: species or system Human; conditions: range over SSTR1-SSTR5, Example 69-1
Procedure: Competitive binding assay was performed with the method below to calculate receptor binding affinity.
Competitive binding assay was consigned to Ricerca Biosciences, and experiment and data analysis was performed. […] The test substance was used at a concentration of 0.01 nM, 0.1 nM, 1 nM, 10 nM, 100 nM, or 1000 nM, and mixed with the membrane sample into a reaction solution. The incubation condition of the reaction solution was at 25° C. for 4 hours for SSTR2 and at 25° C. for 2 hours for SSTR1, SSTR3, SSTR4, and SSTR5.

[4] = Table 10, blood 1 h after s.c. administration
[5] = blood collected one hour after compound administration, rat gastrointestinal obstruction model

With “S1C(disialo)-D-Trp22-SRIF28 [Example 15]” the “GH” value ([1]; dose 0.3 nmol/kg) was 986 ng/mL, the “GH” value ([1]; dose 1 nmol/kg) was 335 ng/mL and the “GH” value ([1]; dose 3 nmol/kg) was 50 ng/mL. For the same compound, the “GH” value ([1]; dose 10 nmol/kg) was 6 ng/mL and the “GH” value ([1]; dose 30 nmol/kg) was 2 ng/mL.
`C[C@@H](O)[C@@H]1NC(=O)[C@H](CCCCN)NC(=O)[C@@H](Cc2c[nH]c3ccccc23)NC(=O)[C@H](Cc2ccccc2)NC(=O)[C@@H](NC(=O)[C@H](N)Cc2ccccc2)CSSC[C@@H](C(=O)N[C@H](CO)[C@@H](C)O)NC1=O` [Octreotide] was tested, and the “Amylase activity compared to the vehicle (in words)” value [2, 4] was “equivalent to the vehicle”, the “LDH activity compared to the vehicle (in words)” value [2, 4] was “low value compared to the vehicle” and the “Amylase (IU/L)” value [2, 5] was 1732 ± 774 IU/L. The “CPK (IU/L)” value [2, 5] was 472 ± 215 IU/L, the “LDH (IU/L)” value [2, 5] was 269 ± 141 IU/L and the Intestinal fluid weight [3] was 693 ± 48 mg.
With S1C(asialo)-SRIF28 [Example 27] the “GH” value ([1]; dose 1 nmol/kg) was 879 ng/mL, the “GH” value ([1]; dose 3 nmol/kg) was 515 ng/mL and the “GH” value ([1]; dose 10 nmol/kg) was 146 ng/mL.
N19C(disialo)-SRIF28 [Example 10] was tested, and the “GH concentration in plasma” value ([1]; subcutaneous 10 nmol/kg) was 563 ng/mL and the “GH concentration in plasma” value ([1]; subcutaneous 100 nmol/kg) was 1.5 ng/mL.
For E12C(disialo)-SRIF28 [Example 4], the “GH” value ([1]; dose 10 nmol/kg) was 10 ng/mL.
For S1C(disialo(Bn))-SRIF28 [Example 61], the “GH” value ([1]; dose 10 nmol/kg) was 49 ng/mL.
S1C(monosialo)-SRIF28 [Example 26] was tested, and the “GH” value ([1]; dose 10 nmol/kg) was 47 ng/mL.
K14C(disialo)-SRIF28 [Example 6] was tested, and the “GH” value ([1]; dose 10 nmol/kg) was 55 ng/mL and the “GH production suppression activity (in words)” value [1] was “showed GH production suppression activity”.
With A9C(disialo)-SRIF28 [Example 3] the “GH” value ([1]; dose 1 nmol/kg) was 577 ng/mL and the “GH” value ([1]; dose 10 nmol/kg) was 20 ng/mL.
29C(disialo)-SRIF28 [Example 13] was tested, and the “GH concentration in plasma” value ([1]; subcutaneous 10 nmol/kg) was 497 ng/mL and the “GH concentration in plasma” value ([1]; subcutaneous 100 nmol/kg) was 88.5 ng/mL.
R13C(disialo)-SRIF28 [Example 5] was tested, and the “GH” value ([1]; dose 10 nmol/kg) was 136 ng/mL and the “GH production suppression activity (in words)” value [1] was “showed GH production suppression activity”.
“S1C(disialo(aminoethylamide))-SRIF28 [Example 59]” was tested, and the “GH” value ([1]; dose 10 nmol/kg) was 314 ng/mL.
N5C(disialo)-SRIF28 [Example 2] was tested, and the “GH” value ([1]; dose 1 nmol/kg) was 969 ng/mL and the “GH” value ([1]; dose 10 nmol/kg) was 12 ng/mL.
For S1-2C(asialo)-SRIF28 [Example 28], the “GH” value ([1]; dose 3 nmol/kg) was 997 ng/mL, the “GH” value ([1]; dose 10 nmol/kg) was 175 ng/mL and the Intestinal fluid weight [3] was 566 ± 34 mg. The “Intestinal fluid weight compared to the vehicle (in words)” value ([3]; text on Table 9) was “increase in the intestinal fluid weight compared to the vehicle” and the “Affinity towards SSTR1-SSTR5, times higher than S1C(disialo)-SRIF28” value (SSTR1-SSTR5) was 1.7-2.9 folds.
For S1C(disialo(amide))-SRIF28 [Example 60], the “GH” value ([1]; dose 10 nmol/kg) was 14 ng/mL.
